These results are taken from patent US20240133870A1, “COMBINED TREATMENT FOR CANCER” (Yeda Research and Development Co. Ltd., priority 2021, published 2024).

The subject of assay [1] is colorectal BRAF (V600E) patient tumor. Briefly: EVOC of a colorectal BRAF (V600E) patient biopsy, viability. It is filed as cell-based, human. The settings on record: Dabrafenib 4 μM/trametinib 0.5 μM with or without trastuzumab or AZD4547 2 μM.
Method: Freshly resected biopsy was sliced, and cultured ex vivo. Following 4 days of drug treatment, slices were fixed and embedded in paraffin blocks. FFPE slices were stained by H&E, and the percentage of viable cancer cells was morphologically assessed on H&E stained sections by a pathologist as the ratio between viable cancer cell area and total cancer area (viable cancer cells plus necrotic cancer cells). […] Vehicle—DMSO, FGFRi—AZD4547 2 μM, HER2i—trastuzumab 30 g/ml, BRAFi/MEKi—Dabrafenib 4 μM/trametinib 0.5 μM.
Tumor tissue was obtained from patients at the time of operation or at the time of tissue core biopsy. Following resection, the fresh tissue was placed in ice-cold PBS for immediate transfer to the lab for ex vivo organ culturing. […]
Immunohistochemistry of EVOC tissues: To assess response therapy, 4 μm FFPE tissue slices were stained with H&E, or with specific antibodies: anti-pERK (Cell Signaling, #4370) followed by HRP conjugated secondary antibody (anti-Rabbit HRP, ZUC032, ZytoChem) and DAB staining (DAB substrate kit, DAB057, ZytoChem). […] All slides were scanned using the Pannoramic SCAN II (3[sequence]) and analyzed by a pathologist. The percentage of viable cancer cells was morphologically assessed on H&E stained sections by a pathologist as the ratio between viable cancer cell area and total cancer area (viable cancer cells plus necrotic cancer cells).
The test system of assay [2] is human NSCLC tumor biopsy. Nature of the assay: EVOC of NSCLC patient biopsies, viability. It is filed as cell-based. From the text:
Error bars represent standard error. […] Scale bar represents 50 μm. […] Error bars represent standard error. […] Scale bar represents 50 μm.
Scale bar represents 50 μm. […] Scale bar represents 50 μm. […] Scale bar represents 50 μm.

The test system of assay [3] is SK-MEL-5 BRAF (V600E) melanoma cells. Briefly: Co-culture of stroma (WI-38 or HS-5) and cancer cells. The assay is classed as cell-based, human. As to conditions: co-culture with HS-5; inhibitor added to vemurafenib. The method, then:
SK-MEL-5 BRAF (V600E) melanoma cells were co-cultured with the lung-derived stromal cell line WI-38 or with the bone marrow-derived stromal cell line HS-5 with or without vemurafenib (4 μM). […] Vehicle—DMSO, EGFRi—gefitinib (0.1 μM), EGFRi/HER2i—lapatinib (10 nM), METi—crizotinib (0.1 μM), FGFRi—AZD4547 (50 nM), NFkB/TNFRi—CAPE (10 μM), TGFBRi-LY2109761 (0.5 μM), gp130i—SC144 (1 nM). […] Error bars represent standard error. […] Error bars represent standard error. […] Human BRAF (V600E) melanoma cell lines UACC62 or G361 were used to generate xenograft tumor models in various tissues of nude mice. When tumors reached a volume of 500-700 μmm^3, they were resected, sliced, and cultured ex-vivo in the presence of different drug combinations or DMSO control. Following 4 days of drug treatment, slices were fixed, embedded in paraffin blocks, and subjected to immunohistochemistry, using anti-pERK antibody, or to immuno-fluorescence, using anti-pFGFR1 antibody. BRAFi (vemurafenib, 4 μM), FGFRi (AZD4547, 2 μM). Scale bar represents 50 μm.
Four hours later, the melanoma BRAF (V600E) mutated cell line SK-MEL-5 was seeded on top of the stromal cells at a concentration of 1700 cells per well, or seeded without stroma. […] Concentrations of the inhibitors were based on dose curves with SK-MEL-5. For each inhibitor of potential mechanism of resistance, the maximal concentration with minimal effect (toxicity) on cell growth was selected (Cmax).
To compare rScore value of stroma-mediated resistance with or without a given inhibitor, the rScore values of each inhibitor in the presence of stroma, was calculated. As a reduction in rScore may stem from mere toxicity of the inhibitor, rather than the abrogation of the stroma mediated resistance, each inhibitor rScore was penalized by its toxicity.
rScoreinhibitor=rScoreinhibitor+(rScorestroma−rScoreinhibitor)*tOxicitY(Cmax)inhibitor

Assay [4] relates to pERK in UACC62 xenograft tumors. Nature of the assay: EVOC of xenograft tumors in various tissues, pERK immunohistochemistry. The assay is classed as cell-based, human. As to conditions: skin tumors; AZD4547 2 μM added to vemurafenib 4 μM. The protocol:
(§1) SK-MEL-5 BRAF (V600E) melanoma cells were co-cultured with the lung-derived stromal cell line WI-38 or with the bone marrow-derived stromal cell line HS-5 with or without vemurafenib (4 μM). […] Vehicle—DMSO, EGFRi—gefitinib (0.1 μM), EGFRi/HER2i—lapatinib (10 nM), METi—crizotinib (0.1 μM), FGFRi—AZD4547 (50 nM), NFkB/TNFRi—CAPE (10 μM), TGFBRi-LY2109761 (0.5 μM), gp130i—SC144 (1 nM). P-values were calculated by two-sided t-test. *** P<0.001. Error bars represent standard error. […] P-values were calculated by two-sided t-test. *** P<0.001. Error bars represent standard error. […] Human BRAF (V600E) melanoma cell lines UACC62 or G361 were used to generate xenograft tumor models in various tissues of nude mice. When tumors reached a volume of 500-700 μmm^3, they were resected, sliced, and cultured ex-vivo in the presence of different drug combinations or DMSO control. Following 4 days of drug treatment, slices were fixed, embedded in paraffin blocks, and subjected to immunohistochemistry, using anti-pERK antibody, or to immuno-fluorescence, using anti-pFGFR1 antibody. BRAFi (vemurafenib, 4 μM), FGFRi (AZD4547, 2 μM). […]
(§2) For the ex-vivo experiments EVOCs from immunocompromised mice bearing human tumors were generated, as further described hereinbelow. For the in-vivo validation experiments, mice bearing subcutaneous tumors were used; and response was measured by evaluating tumor volume. […]
Background: A xenograft is tissue or cells of one species grown in another, often human tumour cells in immunodeficient mice.

Assay [5] deals with pERK in G361 xenograft tumors. The assay is described as above. The assay is classed as cell-based, human. As to conditions: co-treatment with vemurafenib 4 μM and AZD4547 2 μM. The method, then: as §1, §2

For AZD4547, the cancer cell viability entry in assay [1] is listed as “did not improve the response to treatment”; in assay [2] (treatment-naïve patient, in combination with osimertinib 4 μM), “did not affect cancer cell viability”. In assay [2] (patient refractory to osimertinib, osimertinib 4 μM with AZD4547 2 μM), the “response, cancer cell viability” value is recorded as “improved response as compared to osimertinib alone”. Moreover, the cancer cells viability result in assay [2] (treatment-naïve patient, AZD4547 0.2 μM added to gefitinib 1.6 μM) was “significantly reduced cancer cells viability”. In addition, in assay [3], the “abrogation of stroma-mediated resistance to vemurafenib” value is recorded as “needed to abrogate the resistance effect of HS-5”. The pERK inhibition entry in assay [4] is “near complete inhibition of pERK”. Besides, the pERK downregulation result in assay [5] was “sufficient to downregulate pERK in all of the different tumor locations”.
